Experimental data from US20110300234A1, “Methods of Treating Tumor Cells Using RHCC Protein, Fragment or Variant” (priority 2008, published 2011).
No end group written: not given here.

What was measured:
[1] = system: H69AR resistant small-cell lung cancer sub-line; assay: Fluorometric microculture cytotoxicity assay (FMCA); assay type: cell-based, human; details: FMCA 72 hr, cisplatin concentration, read-out: IC50 (95% confidence interval)
Description: (§1) FaDu is grown in DMEM and 10% heat-inactivated FBS, 0.1 mM MEM non-essential amino acids, 1.2 mM sodium pyruvate, 24 mM HEPES, with penicillin and streptomycin. MDA 231, a breast cancer cell line, RPMI 8226, a myeloma cell line, its resistant sub-line 8226/Dox40, NCI-H69, a small lung cancer cell line, its resistant sub-line H69AR, ACHN, a primary resistant renal adenocarcinoma, the ovarian carcinoma cell line A2780, and its resistant sub-line, A2780-Cis, are all grown in RPMI-1640 with 10% heat-inactivated FCS, 2 mM glutamine, penicillin and streptomycin. hTERT-RPE1 a normal epithelial telomerase immortalized line is grown in DMEM nutrient mixture F-12 Ham with 10% heat-inactivated FCS, 2 mM glutamine, penicillin and streptomycin. Tumor cells obtained from 3 ovarian carcinoma patients (OC1-OC3) after ethical approval (Uppsala University ethical committee) are isolated by collagenase dispersion and Percoll density gradient centrifugation (GE Healthcare Life Sciences, Uppsala, Sweden) (see Csoka et al, Gynecol. Oncol., 54(2):163-70 (1994)). […] For experiments, frozen cells are thawed, washed twice and kept in RPMI 1640.
(§2) Microtitre plates (Nunc, Roskilde, Denmark) are prepared with 20 μl/well of drug solution 10 times the desired concentration. To evaluate the cytotoxic activity, the drug plates are seeded with 2×10^4 cells/180 μl/well. A column without drugs serves as a control, and a column with medium serves as a blank FMCA is based on measurements of fluorescence generated from hydrolysis of fluorescein diacetate (FDA) to fluorescein by cells with intact plasma membrane (see Larsson et al, Int. J. Cancer, 50(2):177-85 (1992)). The plates are incubated at 37° C. for 72 hr, washed in PBS, whereafter FDA (dissolved in PBS, 10 μg/ml) is added at 100 μl/well. Plates are then incubated for 50 min, and fluorescence/well is measured at 538 nm in a scanning fluorometer (Fluoroscan II, Labsystems Oy, Helsinki, Finland). Fluorescence is proportional to the number of viable cells/well. Quality criteria for successful analysis includes a fluorescence signal in control wells of more than 5 times mean blank value and a mean coefficient of variation in control wells of less than 30%. Experiments were repeated 3 times.
(§3) FMCA data is processed by GraphPad Prism (GraphPad Software, Inc. San Diego, Calif.) with non-linear regression to a standard sigmoidal dose-response model. Zero and 100% cell survival are set as the maximum effect and the baseline, and IC50 (inhibitory concentration 50%) is estimated. For drugs not resulting in 50% reduction of cell survival, the IC50 was set to>the highest concentration tested.

[2] = system: A2780cis resistant ovarian carcinoma sub-line; assay: as above; assay type: cell-based, human; details: FMCA 72 hr, highest concentration tested 10 μM, read-out: IC50 (95% confidence interval)
Description: as §1, §2, §3

[3] = system: RPMI 8226/S myeloma cell line; assay: as above; assay type: cell-based, human; details: FMCA 72 hr, cisplatin concentration, read-out: IC50 (95% confidence interval)
Description: as §1, §2, §3

[4] = system: MDA 231 breast cancer cell line; assay: as above; assay type: cell-based, human; details: MDA 231, FMCA 72 hr, cisplatin concentration; read-out: IC50 (95% confidence interval)
Description: as §1, §2, §3

[5] = system: 8226/dox40 resistant myeloma sub-line; assay: as above; assay type: cell-based, human; details: 8226/dox40, FMCA 72 hr, cisplatin concentration; read-out: IC50 (95% confidence interval)
Description: as §1, §2, §3

[6] = system: NCI-H69 small-cell lung cancer cell line; assay: as above; assay type: cell-based, human; details: NCI-H69, FMCA 72 hr, highest concentration tested 10 μM; read-out: IC50 (95% confidence interval)
Description: as §1, §2, §3

[7] = system: A2780 ovarian carcinoma cell line; assay: as above; assay type: cell-based, human; details: A2780, FMCA 72 hr, highest concentration tested 10 μM; read-out: IC50 (95% confidence interval)
Description: as §1, §2, §3

[8] = system: FaDu head and neck squamous cell carcinoma cell line; assay: as above; assay type: cell-based, human; details: FMCA 72 hr, cisplatin concentration, read-out: IC50 (95% confidence interval)
Description: as §1, §2, §3

[9] = system: ACHN renal adenocarcinoma cell line; assay: as above; assay type: cell-based, human; details: FMCA 72 hr, cisplatin concentration, read-out: IC50 (95% confidence interval)
Description: as §1, §2, §3

[10] = system: FaDu-cells s.c. in SCID-mice; assay: In vivo tumor reduction assay; design: species or system mouse
Source text: Mice are palpated and weighed 3 times/week, and euthanized if the tumor diameter exceeded 10 mm or if weight decreased below 80% of starting weight, according to ethical guidelines.

[11] = system: h-TERT-RPE1 normal epithelial telomerase immortalized cell line; assay: Fluorometric microculture cytotoxicity assay (FMCA); assay type: cell-based, human; details: h-TERT-RPE1, FMCA 72 hr, highest concentration tested 10 μM; read-out: IC50 (95% confidence interval)
Description: Microtitre plates (Nunc, Roskilde, Denmark) are prepared with 20 μl/well of drug solution 10 times the desired concentration. […] Fluorescence is proportional to the number of viable cells/well. Quality criteria for successful analysis includes a fluorescence signal in control wells of more than 5 times mean blank value and a mean coefficient of variation in control wells of less than 30%. Experiments were repeated 3 times.

[12] = system: RHCC-specific antibodies in Balb/c-mice; assay: ELISA of antibody response to RHCC in sera; assay type: in vivo, mouse; details: 14 days after i.v. 0.4 or 0.2 mg RHCC
Description: The antibody response to RHCC in sera from Balb/c-mice collected 14 days after i.v. injection of 0.4 or 0.2 mg RHCC (2 mice/group), or 0.1 M NaCl (one mouse), is measured by ELISA. Microtitre plates (BD Biosciences, San Diego, Calif., USA) are coated with 5 μg/ml RHCC in 0.1 M carbonate-buffer pH 9.6 per well o.n. at 4° C. Plates are blocked in blocking solution (5% milk powder, 0.2% Tween in PBS) for 1 hr at room temperature. Serial dilutions of mouse sera in blocking solution (1:50-1:1350) is added in duplicates to the wells. After 1 hr at room temperature, plates are washed and incubated with secondary alkaline phosphatase (AP) conjugated goat-anti mouse IgG antibody (Sigma-Aldrich, Stockholm, Sweden). Plates are washed and developed with nitrophenylphosphate (pNPP) (Sigma-Aldrich, Stockholm, Sweden) and absorbance is measured at 405 nm in a VersaMax microplate reader (Molecular Devices, Sunnyvale, Calif., USA).

[13] = system: murine dendritic cells; assay: Dendritic cell (DC) maturation assay; assay type: cell-based, mouse; details: 50 μg/ml RHCC, 24 hr, vs unstimulated cells
Description: Murine bone marrow-derived dendritic cells (BMDCs) are generated according to Lutz et al, J. Immunol. Methods, 223(1):77-92 (1999), and murine splenic DCs are purified using CD11c (N418) MicroBeads (Miltenyi Biotec, Auburn, Calif., USA) according to the manufacturer. DCs are seeded in 24-well plates (BD Biosciences, San Diego, Calif., USA) at 10^6 cells/ml in R10 medium and mixed with 50 μg/ml RHCC. LPS 1 μg/ml (Sigma-Aldrich, Stockholm, Sweden) is used as positive control. After 24 hr stimulation, DCs are stained with PE-conjugated antibodies to CD40, CD80 and CD86 and FITC-conjugated antibody to MHC Class II I-Ab (BD Biosciences Pharmingen, San Diego, Calif., USA) 30 min at 4° C., washed twice in PBS with 0.1% BSA and analyzed by flow cytometry. IL-12 production is analyzed by ELISA according to the manufacturer (Mabtech, Nacka, Sweden). Plates are coated with 2 μg/ml of anti-IL-12 capture antibody o.n, then after blocking, 100 μl of BMDC culture supernatants are added at dilutions 1:1-1:128 for 2 hr at RT. Plates are thereafter incubated with biotinylated anti-IL-12 antibody 1 hr at room temperature, and the response is visualized as above for ELISA.

[14] = system: primary human tumor cells from ovarian carcinoma patients (OC1-OC3); assay: FMCA in primary human tumor cells; assay type: cell-based; details: cell lines and patient samples tested
Description: (§4) FaDu is grown in DMEM and 10% heat-inactivated FBS, 0.1 mM MEM non-essential amino acids, 1.2 mM sodium pyruvate, 24 mM HEPES, with penicillin and streptomycin. […]
as §2, with “To evaluate the cytotoxic activity, the drug plates are seeded with 2×10^4 cells/180 μl/well.” left out, “The plates are incubated at 37° C. for 72 hr, washed in PBS, whereafter FDA (dissolved in PBS, 10 μg/ml) is added at 100 μl/well.” left out, “Experiments were repeated 3 times.” left out

[15] = background statement; cited from earlier work
[16] = system: 10 cell lines; assay: FMCA, statements over the panel of cell lines; assay type: cell-based, human; details: tested concentrations, starting at 3.48 μM, all cell types
Description: as §4
as §2, with “To evaluate the cytotoxic activity, the drug plates are seeded with 2×10^4 cells/180 μl/well.” left out, “The plates are incubated at 37° C. for 72 hr, washed in PBS, whereafter FDA (dissolved in PBS, 10 μg/ml) is added at 100 μl/well.” left out, “Experiments were repeated 3 times.” left out

[17] = system: IFNγ-secreting splenocytes of Balb/c-mice; assay: IFN-γ EliSpot assay of splenocytes after RHCC injection; details: 7 days after i.v. 0.4 or 0.2 mg RHCC
[18] = system: Balb/c mice; assay: Tolerability in mice after RHCC injection; details: after injection with endotoxin purified RHCC

Question: Which results are given for `N.N.[Cl][Pt][Cl]` [Cisplatin, Cis-diammine-dichloroplatinum (II)]?
Answer: IC50 [1]: 8.5 µM; IC50 [2]: > 10 µM; IC50 [3]: 7.44 µM; IC50 [4]: > 10 µM; IC50 [5]: > 10 µM; IC50 [6]: > 10 µM; IC50 [7]: > 10 µM; IC50 [8]: 7.9 µM; IC50 [9]: 6.9 µM; alteration in weight ([10]; i.v., during the experiment): no significant alteration in weight; IC50 [11]: > 10 µM

Question: With “RHCC: Recombinant Right-Handed Coiled-Coil protein tetramer of Tetrabrachion (Staphylothermus marinus), strands of SEQ ID NO:1, purified from endotoxins (GSIINETADDIVYRLTVIIDDRYESLKNLITLRADRLEMIINDNVSTILASI; also: tetramer)” as the compound, how does the “tumor reduction, RHCC alone” value ([10]; 0.675 mg RHCC, separate experiment) read?
Answer: no effect on tumor reduction

Question: What about the “RHCC-specific antibody response (ELISA)” value [12] of the same compound?
Answer: no significant antibody response

Question: What about the CD40 expression [13] of the same compound?
Answer: weak increase

Question: And the IL-12 production [13]?
Answer: weak increase

Question: What about the “maturation markers CD80, CD86 and MHC Class II” value [13] of the same compound?
Answer: no increase

Question: And the “cytotoxic effect of RHCC alone” value [14]?
Answer: no cytotoxic effect

Question: And the “temperature at which stable” value [15]?
Answer: over 100 °C

Question: And the “toxicity of RHCC alone” value [16]?
Answer: nontoxic

Question: What about the “IFNγ-EliSpot T cell response” value [17] of the same compound?
Answer: slight production of specific CD8+ T cells

Question: And the “signs of illness (viability, weight)” value [18]?
Answer: no signs of illness
